From PMC5404848 (Cell Chemical Biology, 2017)

Columns and labels:
HCT116 p53^−/− cells = assay: MTT assay (cell viability), 6 days treatment; type: cell-based, Human; settings: for GI50: HCT116 p53^−/−, MTT assay
Method: (§1) To test the biological activity of the compounds, we performed MTT (3-(4,5-dimethylthiazol-2-yl)-2,5-diphenyltetrazolium bromide) and lactate dehydrogenase (LDH) release assays. […] To track not only the toxic (lethal) but also growth-inhibitory (GI) effect in the MTT assay, we treated the cells for 6 days.
(§2) For MTT assay, the cells were seeded on 96-well transparent plates and treated the next day with the compounds or DMSO for 6 days. Thiazolyl Blue Tetrazolium Bromide (MTT, Sigma Aldrich) was added for 60 minutes to a final concentration of […]. The medium was removed and MTT crystals were dissolved in isopropanol supplemented with 40 mM HCl. The absorbance was measured with Infinite 200 microplate reader (Tecan Group Ltd.) at 570 nm with the reference wavelength 650 nm for background subtraction.

HCT116 p53^wt cells [1] = assay: MTT assay (cell viability), 6 days treatment; type: cell-based, Human; settings: for GI50: HCT116^wt, MTT assay
Method: as §1, §2

HCT116 cells [2] = assay: Western blot analysis of USP2a targets Aurora A and cyclin A1; settings: 5 μM and 20 μM, 48 hr
Method: Total cell lysates were prepared with RIPA buffer (Sigma Aldrich) containing protease inhibitor cocktail (Sigma Aldrich) alone or with phosphatase inhibitor cocktail (Roche). Following the electrophoresis and transfer, PVDF membranes were blocked with 4% BSA (BioShop) in TBS-N buffer and incubated with primary antibody at 4°C overnight. After four washes, the addition of secondary antibodies and additional four washes, the detection was performed using Clarity Western ECL Substrate (BioRad) and ChemiDoc MP system (BioRad). The densitometry analysis was performed with Image Lab software (BioRad). All measured values, besides cyclin D1 stability experiment, were normalized to GAPDH or α-tubulin expression level.

MCF-7 cells [3] = assay: Synchronization-release assay (serum starvation and release); type: cell-based, Human; settings: pre-treatment during 2 days serum starvation, release 10% FBS 24 hr
Excerpt: Cyclin D1 is a key modulator of the transition through the G1/S checkpoint and is known to be sensitive to proliferative signals delivered by the mitogens. To evaluate the interplay between the mitogens provided by the serum and LCAHA, we performed a synchronization-release assay on the cells treated with LCAHA. To assess the involvement of cyclin D1 in this interplay, we used MCF-7 (cyclin D1-dependent) and SAOS-2 (cyclin D1-negative) cells. The cells were synchronized in G0/G1 by the removal of fetal bovine serum (FBS) for 2 days of the culture in the presence of LCAHA. After this time, the cells were released by the addition of medium containing 10% FBS for 24 hr (still in the presence of the compound).
Figure S4. The analysis of the progression of MCF-7 and SAOS-2 cells through the cell cycle following serum starvation and release by the addition of serum. Related to […]
For the experiment, cyclin D1-dependent MCF-7 and cyclin D1-negative SAOS-2 cell lines were used.
The cells were synchronized in G0/G1 by the removal of FBS for 2 days of the culture in the presence of LCAHA compound. […] The cells were fixed, stained with PI and analysed for cell cycle distribution with ModFit LT Software. […] The statistical significance was evaluated using t-test: * p<0.05, ** […]

U-2 OS cells [4] = assay: Western blot analysis of cyclin D1 expression; type: cell-based, Human; settings: 10 μM, 48 hr
HCT116 p53^wt cells [5] = assay: Cell numbers from pictures of Hoechst-stained cells; type: cell-based, Human; settings: 3 days, DMSO 6452
Method: The cells were plated on the 96-well white, flat bottom plates (Falcon) and treated with DMSO, LCAHA or Staurosporine. For the detection of caspase activity Caspase-Glo 3/7 Assay System was used (Promega) according to the manufacturer’s instructions. Due to the observed growth-inhibitory properties of LCAHA the results were normalized to cell numbers, calculated from the pictures of Hoechst-stained cells seeded on transparent culture plates and treated identically as the cells seeded for caspase activity assay (mean nuclei number per picture was 6452 for 3 days treatment with DMSO, and 3957, 4229 and 2783 for the cells treated with increasing concentrations of LCAHA).

SAOS-2 cells = assay: MTT assay, 6 days; type: cell-based, Human
Method: (§3) In addition a colony-forming assay was performed on cyclin D1-addicted MCF-7 cells and cyclin D1-negative SAOS-2 cells.
as §2

MCF-7 cells [6] = assay: MTT assay, 6 days; type: cell-based, Human
Method: as §3, §2

U-2 OS cells [7] = assay: MTT assay, 6 days; type: cell-based, Human
Method: as §3, §2

[8] = tested on: CCND1 mRNA in HCT116, MCF-7, and U-2 OS; assay: RT-PCR of CCND1 mRNA; type: cell-based, Human; settings: 10 μM, 48 hr
Method: To characterize the mechanism of cyclin D1 downregulation by LCAHA, we first examined the level of CCND1 mRNA. […] In SAOS-2 cells CCND1 mRNA was not detected.
Total RNA was isolated with Renozol (GenoPlast Biochemicals) according to the manufacturer’s instructions. Five hundred ng of RNA was reverse-transcribed using M-MLV RT (Promega) and oligo-dT primer. RT PCR was performed with the use of GoTaq qPCR Master Mix (Promega) and the following primers: for CCND1 mRNA: […] and […], for GAPDH mRNA: […] and […] ([Yin et al., 2001]). The hybridization step was carried out at 60°C and the program involved 30 amplification cycles. The products were separated on 1% agarose gel and visualized with ChemiDoc MP system.

MCF-7 cells [9] = assay: Western blot analysis of cyclin D1 expression; type: cell-based, Human; settings: 10 μM, 48 hr
HCT116 cells [10] = assay: Membrane integrity LDH release assay; type: cell-based, Human; settings: 48 hr of treatment
Method: To test the biological activity of the compounds, we performed MTT (3-(4,5-dimethylthiazol-2-yl)-2,5-diphenyltetrazolium bromide) and lactate dehydrogenase (LDH) release assays. In addition, the importance of p53 status was evaluated by the use of two variants of HCT116 cells: HCT116 p53^wt (wild-type) and HCT116 p53^−/−. To track not only the toxic (lethal) but also growth-inhibitory (GI) effect in the MTT assay, we treated the cells for 6 days. In the experiment the toxic effect, but not the GI effect, was expected to be accompanied by LDH release.
Membrane integrity LDH release assay was performed using CytoTox-ONE kit (Promega). The cells were seeded on 96-well black plates, and after 24 hours treated with the compounds or DMSO for 2 days. The assay was performed according to the manufacturer’s instructions. For each well the data was calculated as a % of total LDH content, measured for the lysed cells, treated in the same manner as cells on that well.

[11] = Homo sapiens, HCT-116, 144 h, 6 days
[12] = concentration range 2–20 μM, MTT, 6 days

`C[C@H](CCC(=O)NO)[C@H]1CC[C@H]2[C@@H]3CC[C@@H]4C[C@H](O)CC[C@]4(C)[C@H]3CC[C@]12C` [LCAHA, N-(hydroxy)-3-hydroxylithocholanamide] was tested, and the GI50 (HCT116 p53^−/− cells; 6 days) was 960 ± 290 nM, the GI50 (HCT116 p53^−/− cells; [11]) was under 1000 nM and the LD50 (HCT116 p53^−/− cells; Homo sapiens, HCT-116, 144 h, read-out: LD50, HCT116 p53^−/−, MTT assay, 6 days) was over 25 µM. The “growth of cells inhibited” value (HCT116 p53^−/− cells; [12]) was “about 60%”, the GI50 (HCT116 p53^wt cells [1]; 6 days) was 870 ± 90 nM and the GI50 (HCT116 p53^wt cells [1]; [11]) was under 1000 nM. For the same molecule, the LD50 (concentration killing 50% of cells) (HCT116 p53^wt cells [1]; Homo sapiens, HCT-116, 144 h, read-out: LD50, HCT116^wt, MTT assay, 6 days) was over 25 µM, the “growth of cells inhibited” value (HCT116 p53^wt cells [1]; [12]) was “about 60%” and the “expression level of Aurora A” value (HCT116 cells [2]) was “significant decrease”. The “expression level of cyclin A1” value (HCT116 cells [2]) was “significant decrease”, the “entry into the S phase after serum release” value (MCF-7 cells [3]) was “significantly inhibited the entry into the S phase” and the “cyclin D1 expression” value (U-2 OS cells [4]) was “significant decrease of cyclin D1 expression”. For the same molecule, the “mean nuclei number per picture” value (HCT116 p53^wt cells [5]; first (lowest) of increasing concentrations) was 3957, the “mean nuclei number per picture” value (HCT116 p53^wt cells [5]; second of increasing concentrations) was 4229 and the “mean nuclei number per picture” value (HCT116 p53^wt cells [5]; third (highest) of increasing concentrations) was 2783. The “viability (MTT)” value (SAOS-2 cells) was “viability decrease was observed only at high concentrations”, the “viability (MTT)” value (MCF-7 cells [6]) was “biphasic, dose-dependent decrease of viability” and the “viability (MTT)” value (U-2 OS cells [7]) was “biphasic, dose-dependent decrease of viability”. The “level of CCND1 mRNA” value [8] was “did not change”, the “cyclin D1 expression” value (MCF-7 cells [9]) was “significant decrease of cyclin D1 expression” and the LDH release (HCT116 cells [10]) was “observed only at the concentrations corresponding to the high-concentration toxic effect”.
